Source: patent publication US20040019060A1, “Sigma receptor ligands and their medical uses” (priority 2000, published 2004)
Read-outs that look alike come from different tables or passages of the source.

How the values were obtained:
[1] = test system: endothelial cells; test: Endothelial cell proliferation assay (cell phosphatase activity); format: cell-based, human; conditions: for Rescue from Rimcazole inhibition of proliferation: 4 μM agonist added together with 4 μM Rimcazole; for Stimulatory activity on cell proliferation: agonist ligands alone; for Agonists: stimulation: increase in cell number relative to controls on day 4; for IC50: concentration of drug required to inhibit survival and/or proliferation by 50%, read-out: Antagonists: IC50
Protocol: HUVECS (human umbilical vein endothelial cells) obtained from TCS Biologicals were grown in TCS Biologicals Large Vessel Endothelial Cell Basal Medium (ZHM-2951) with supplement (ZHS-8945). This contains heparin, hydrocortisone, human EGF, human bFGF (concentrations not disclosed by the Company) with added 2% FCS, pH 7.4.
HMEC-1 (immortalised human microvascular endothelial cells) obtained from Dr Colin Porter, Chester Beatty Laboratories were grown in TCS Biologicals Microvascular Endothelial Cell Basal Medium (ZHM-2946) with supplement (ZHS-8947). This contains heparin, hydrocortisone, human EGF, human bFGF, dibutyryl cyclic AMP (concentrations not disclosed by the Company) with added 5% FCS, pH 7.4.
HDMECS (human dermal microvascular endothelial cells) obtained from TCS Biologicals were grown in TCS Biologicals Microvascular Endothelial Cell Basal Medium (ZHM-2946) with supplement (ZHS-8947). This contains heparin, hydrocortisone, human EGF, human bFGF, dibutyryl cyclic AMP (concentrations not disclosed by the Company) with added 5% FCS, pH 7.4.
The cells were seeded at 2×10^4 ml in 96 well microtitre plates on day 0, and sigma ligands were added in fresh medium on day 1. […] PCS at the concentrations indicated was present throughout the assay. Each concentration of drug was assayed in triplicate, and the vehicle concentration was kept constant.
Viable cells present at the end of the assay were estimated by determining phosphatase activity as follows: 100Xl of paranitrophenylphosphate (Sigma) at 3 mg/ml in phosphate buffer pH 5.5 containing 0.1% Triton X100 was added to wells and incubated for 2hr at 37° C. The reaction was stopped with 1N NaOH. Released paranitrophenol, indicative of attached cell number, was measured by reading the absorbance at 405 nm in a Titertek multiscan. […] The 100% value is the mean absorbance of control wells treated with vehicle alone; the 0% value is that of wells containing medium only.

[2] = test system: Human endothelial cells co-cultured with human "feeder" fibroblasts; test: In vitro angiogenesis assay (pseudocapillary formation, anti-CD31 staining); format: cell-based
Protocol: Human endothelial cells co-cultured with human “feeder” fibroblasts on a fibrin matrix in 24 well plates were incubated with ligands at different concentrations. The ligands were added on days 0, 4, 7 and 9 and the experiment terminated on day 11. On each plate, 2 wells served as untreated controls, and 2 received suramin at […] as a standard angiogenesis inhibitor. Each concentration of ligand was assayed in triplicate. On day 11, the wells were washed, and the endothelial cells fixed and stained with anti-CD31 (PECAM-1) antibody and visualised with alkaline phosphatase conjugated second antibody. The cultures were scanned for image analysis and quantitation using a DataCell image analysis system and ImagePro software. Angiogenesis was expressed as the area and/or perimeter of “pseudocapillaries” formed in the gel by the endothelial cells.

[3] = test system: Human adult dermal microvascular endothelial cells; test: MTS cell viability/proliferation assay, microvascular endothelial cells
[4] = molecular target: sigma-1 sites (Homo sapiens, UniProt Q99720); conditions: cited from earlier work; for affinity for sigma-1 versus sigma-2 sites / selectivity for sigma sites compared to other receptors: Matsumoto et al 1995; for selectivity for sigma sites compared to other receptors: vs opiate, phencyclidine, muscarinic, dopamine, alpha-1-, alpha-2-, beta-adrenoceptor, 5HT-1, 5-HT-2
[5] = test system: sponge angiogenesis; test: Rat sponge angiogenesis model (125I albumin vascular volume); format: in vivo, CBH/cbi rats
Protocol: In order to study neoangiogenesis in the absence of tumours, sterile polyether sponges were implanted into animals. This technique, developed in Cambridge, has been widely used to study angiogenesis. We have employed a triple radiotracer technique to study different aspects of the angiogenic process.
CBH/cbi rats were implanted s.c. with sterile 13 mm diameter sponges as above. They were treated i.p. with Rimcazole (30 mg/kg/day) for 14 days from day 0. Five minutes before termination, they were injected with ^125I labelled rat albumin (a macromolecule which, in the short term remains intravascular). The amount of radioiodine in the sponges is an index of vascular volume.

[6] = test system: Human mammary carcinoma (MDA MB 468) cells; test: MTS cell viability/proliferation assay, mammary carcinoma cells; format: cell-based; conditions: 10 micromolar, low passage cells, FIG. 9
Protocol: Human mammary carcinoma (MDA MB 468) cells were obtained from TCC, Manassas, Va., USA; catalogue number HTB-132; cells were grown in accordance with the manufacturer's instructions.
(§1) Cell density was checked microscopically at time zero.

[7] = Pharmacokinetics in mice (LCMS of plasma, liver, spleen); format: in vivo, Balb/C mice; conditions: not shown
Protocol: Prior to undertaking any in vivo experiments with Rimcazole to study effects on tumour growth and angiogenesis, it was necessary to determine its pharmacokinetics in order that doses in the active range could be administered. Rimcazole (dissolved in water) was administered at 40 mg/kg i.p to Balb/C mice. Heparinised blood samples were taken at 5, 15 and 30 minutes, 1,2,4,6, and 24 hours and plasma separated. Tissue samples were also taken at some time points for analysis. Rimcazole samples were initially analysed by LCMS.
Column: Supelco 50×4.6 mm ABZ+ with 5 μ packing.
Mobile phase: A=HPLC grade methanol, B=0.1% formic acid in water.
Full scan mode: mass range analysed 50 to 850 amu.
MSMS mode: filtered ions were 322 (Rimcazole), 338 (Rimcazole+oxygen), and 514 (glucuronide of 338 metabolite).

[8] = test system: Human mammary epithelial cells; test: MTS cell viability/proliferation assay, mammary epithelial cells; format: cell-based; conditions: 10 micromolar, up to 48 hours, FIG. 9
Excerpt: (§2) (Tissue in all cases was from healthy donors). […] Primary cell types included:
Human mammary epithelial cells (catalogue number CC-2551; stain positive for cytokeratins 14, 18 and 19).
as §1

[9] = test system: human adult dermal fibroblasts; test: MTS cell viability/proliferation assay, dermal fibroblasts; format: cell-based
Excerpt: as §2, §1

Chain of sigma-1 sites (Q99720 whole entry): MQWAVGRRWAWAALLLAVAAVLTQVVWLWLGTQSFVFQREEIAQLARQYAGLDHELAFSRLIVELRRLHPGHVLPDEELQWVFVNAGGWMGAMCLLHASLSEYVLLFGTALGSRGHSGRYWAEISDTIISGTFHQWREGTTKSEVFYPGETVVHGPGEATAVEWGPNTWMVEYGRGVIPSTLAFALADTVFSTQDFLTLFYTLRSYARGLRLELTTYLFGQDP

**Q.** For C=CCN1CCC2(C)c3cc(O)ccc3CC1C2C (single isomer, unassigned; (+)) [(+)-SKF-10047, (+)-N-allyl normetazocine], which “Rescue from Rimcazole inhibition of proliferation” value ([1]; FIG. 3) is on record?
**A.** slight increase in survival

**Q.** And the “Rescue from Rimcazole inhibition: numbers of endothelial cells” value ([1]; 10 μM agonist added together with 4 μM Rimcazole, FIG. 3)?
**A.** the same as in control untreated cultures

**Q.** And the “Stimulatory activity on cell proliferation” value [1]?
**A.** moderate stimulatory activity

**Q.** And the “Agonists: stimulation” value ([1]; at 100 μM)?
**A.** 110% at 100 μM

**Q.** Which “Rescue of in vitro angiogenesis inhibition by 4 μM Rimcazole” value ([2]; equimolar concentration co-incubated, FIG. 5c) does the source give for CC(C)=CCN1CCC2(C)c3cc(O)ccc3CC1C2C (single isomer, unassigned; (+)) [(+)pentazocine, (+)-pentazocine] here?
**A.** can be prevented

**Q.** And the “Rescue from Rimcazole inhibition of proliferation” value ([1]; FIG. 3)?
**A.** slight increase in survival

**Q.** What about the “Stimulatory activity on cell proliferation” value [1] of the same compound?
**A.** moderate stimulatory activity

**Q.** And the “Agonists: stimulation” value ([1]; at 4 μM)?
**A.** 120% at 4 μM

**Q.** And the “Prevention of cytotoxic effect of IPAG and rimcazole” value ([3]; 10 micromolar co-administered with 10 micromolar IPAG or rimcazole, FIG. 11)?
**A.** completely prevented

**Q.** And the “Cell proliferation rate on co-administration with rimcazole and IPAG” value ([3]; co-administration, FIG. 11)?
**A.** increased cell proliferation rates above control values

**Q.** With CN(C)CCN(C)CCc1ccc(Cl)c(Cl)c1 [BD1047, N(−)[2-(3,4-dichlorophenyl)ethyl]-N-methyl-2-(dimethylamino)ethylamine] as the compound, how does the “affinity for sigma-1 versus sigma-2 sites” value [4] read?
**A.** preferential affinities for sigma-1 compared to sigma-2

**Q.** What about the “selectivity for sigma sites compared to other receptors” value [4] of the same compound?
**A.** marked selectivity

**Q.** What about the IC50 [1] of the same compound?
**A.** 74 µM

**Q.** Which “affinity for sigma-1 versus sigma-2 sites” value [4] does the source give for CN1CCN(CCc2ccc(Cl)c(Cl)c2)CC1 [BD1063, 1(−)[2-(3,4-dichlorophenyl)ethyl]-4-methylpiperazine] here?
**A.** preferential affinities for sigma-1 compared to sigma-2

**Q.** What about the “selectivity for sigma sites compared to other receptors” value [4] of the same compound?
**A.** marked selectivity

**Q.** What about the IC50 ([1]; Homo sapiens, Endothelial cell) of the same compound?
**A.** 71 µM

**Q.** With N=C(Nc1ccc(I)cc1)NC1C2CC3CC(C2)CC1C3 (stereo not shown) [IPAG, 1-(4-iodophenyl)-3-(2-adamantyl)guanidine] as the compound, how does the “Vascular volume of normal organs (liver and kidney)” value ([5]; 30 mg/kg/day for 14 days) read?
**A.** unaffected

**Q.** And the “Neoangiogenesis in sponges (vascular volume, radiolabelled albumin)” value ([5]; 30 mg/kg/day for 14 days after implantation, FIG. 7b)?
**A.** reduced

**Q.** And the “Cell killing (MTS viability)” value [6]?
**A.** no surviving cells remained after 24 hours

**Q.** And the “Pharmacokinetics compared with Rimcazole” value [7]?
**A.** similarly favourable PK

**Q.** What about the “Survival and proliferation (MTS)” value [8] of the same compound?
**A.** continued to proliferate vigorously

**Q.** What about the Ki ([4]; Whittemore et al 1997, read-out: inhibition constant for sigma-1 sites) of the same compound?
**A.** ~0.0028 µM

**Q.** And the “Inhibition of pseudocapillary formation (in vitro angiogenesis)” value ([2]; FIG. 4, 5a, 5b angiogenesis area)?
**A.** very effective in inhibiting

**Q.** What about the IC50 ([1]; Homo sapiens, Endothelial cell) of the same compound?
**A.** 11 µM

**Q.** And the “Inhibition of endothelial cell proliferation compared with Rimcazole” value ([1]; not shown)?
**A.** as effective as Rimcazole

**Q.** What about the cytotoxicity at 10 µM ([3]; Homo sapiens, Endothelial cell, read-out: Reduction in viable cell numbers compared to baseline values) of the same compound?
**A.** 60 to 80%

**Q.** What about the “Survival and proliferation (MTS)” value ([9]; 10 micromolar, up to 48 hours, FIG. 9) of the same compound?
**A.** continued to proliferate vigorously

**Q.** And the “Tolerance of fibroblasts over a range of concentrations (MTS)” value ([9]; 100 micromolar to 1 nanomolar, FIG. 10)?
**A.** slightly less tolerant of high concentrations
